For nine compounds, IC50 results are on record in patent publication US10125098B2, “Therapeutic compounds and methods of use thereof” (GENENTECH, INC., priority 2014, dated 2018).

Structures are written as SMILES. Read-outs that look alike come from different tables or passages of the source.

Data set [1] addresses T1, NaV1.5 (Homo sapiens, UniProt Q14524).
T1 construct: permanently transfected with an expression vector containing the full-length cDNA coding for the desired human sodium channel α-subunit; expressed in transfected cells; host or cells: HEK-293
The data set is described as follows: Patch voltage clamp electrophysiology assay (EP), NaV1.5. It counts as cell-based. Conditions: HEK-293 cells stably expressing NaV1.5 with β1 subunit, whole-cell patch clamp, membrane potential −60 mV (inactivated state). The method, boiled down:
(§1)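 HEK-293 cells stably expressing human α-subunit with β1; whole-cell patch clamp (PatchXpress or manual), ambient temperature, pH 7.4 external NaCl, CsF internal. Held at −60 mV (full inactivation), stepped to −150 mV for 20 ms, then test pulse; percent current decrease after compound wash-on taken as block.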

In data set [2] the target is T2, human NaV1.7 (Homo sapiens, UniProt Q15858).
T2 construct: permanently transfected with an expression vector containing the full-length cDNA coding for the desired human sodium channel α-subunit; expressed in transfected cells; host or cells: HEK-293
The data set is described as follows: Patch voltage clamp electrophysiology assay (EP), NaV1.7. The conditions noted are these: HEK-293 cells stably expressing NaV1.7 with β1 subunit; whole-cell patch clamp, membrane potential −60 mV (inactivated state). It counts as cell-based. The method, boiled down: as §1

In data set [3] the target is T3, hNav1.7 (Homo sapiens, UniProt Q15858).
T3 construct: expressed in transfected cells
The data set is described as follows: Tritiated compound binding (LBA) to membranes from cells expressing hNav1.7 and the β1 subunit, competitive binding. The conditions noted are these: competitive binding vs 100 pM [3H]compound, 18 h, room temperature, membranes with hNav1.7 and β1 subunit. The method in brief:
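Membranes from cells expressing hNav1.7 with β1 were incubated 18 h at room temperature with 100 pM tritiated formula (I) compound and increasing test compound, in 100 mM NaCl, 20 mM Tris HCl pH 7.4, 0.01% BSA.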

Setting [4] is: human, HEK-293 cells stably expressing human NaV1.5 with β1 subunit, pH 7.4.

T3 sequence (Q15858 1-1977 isoform Q15858-3): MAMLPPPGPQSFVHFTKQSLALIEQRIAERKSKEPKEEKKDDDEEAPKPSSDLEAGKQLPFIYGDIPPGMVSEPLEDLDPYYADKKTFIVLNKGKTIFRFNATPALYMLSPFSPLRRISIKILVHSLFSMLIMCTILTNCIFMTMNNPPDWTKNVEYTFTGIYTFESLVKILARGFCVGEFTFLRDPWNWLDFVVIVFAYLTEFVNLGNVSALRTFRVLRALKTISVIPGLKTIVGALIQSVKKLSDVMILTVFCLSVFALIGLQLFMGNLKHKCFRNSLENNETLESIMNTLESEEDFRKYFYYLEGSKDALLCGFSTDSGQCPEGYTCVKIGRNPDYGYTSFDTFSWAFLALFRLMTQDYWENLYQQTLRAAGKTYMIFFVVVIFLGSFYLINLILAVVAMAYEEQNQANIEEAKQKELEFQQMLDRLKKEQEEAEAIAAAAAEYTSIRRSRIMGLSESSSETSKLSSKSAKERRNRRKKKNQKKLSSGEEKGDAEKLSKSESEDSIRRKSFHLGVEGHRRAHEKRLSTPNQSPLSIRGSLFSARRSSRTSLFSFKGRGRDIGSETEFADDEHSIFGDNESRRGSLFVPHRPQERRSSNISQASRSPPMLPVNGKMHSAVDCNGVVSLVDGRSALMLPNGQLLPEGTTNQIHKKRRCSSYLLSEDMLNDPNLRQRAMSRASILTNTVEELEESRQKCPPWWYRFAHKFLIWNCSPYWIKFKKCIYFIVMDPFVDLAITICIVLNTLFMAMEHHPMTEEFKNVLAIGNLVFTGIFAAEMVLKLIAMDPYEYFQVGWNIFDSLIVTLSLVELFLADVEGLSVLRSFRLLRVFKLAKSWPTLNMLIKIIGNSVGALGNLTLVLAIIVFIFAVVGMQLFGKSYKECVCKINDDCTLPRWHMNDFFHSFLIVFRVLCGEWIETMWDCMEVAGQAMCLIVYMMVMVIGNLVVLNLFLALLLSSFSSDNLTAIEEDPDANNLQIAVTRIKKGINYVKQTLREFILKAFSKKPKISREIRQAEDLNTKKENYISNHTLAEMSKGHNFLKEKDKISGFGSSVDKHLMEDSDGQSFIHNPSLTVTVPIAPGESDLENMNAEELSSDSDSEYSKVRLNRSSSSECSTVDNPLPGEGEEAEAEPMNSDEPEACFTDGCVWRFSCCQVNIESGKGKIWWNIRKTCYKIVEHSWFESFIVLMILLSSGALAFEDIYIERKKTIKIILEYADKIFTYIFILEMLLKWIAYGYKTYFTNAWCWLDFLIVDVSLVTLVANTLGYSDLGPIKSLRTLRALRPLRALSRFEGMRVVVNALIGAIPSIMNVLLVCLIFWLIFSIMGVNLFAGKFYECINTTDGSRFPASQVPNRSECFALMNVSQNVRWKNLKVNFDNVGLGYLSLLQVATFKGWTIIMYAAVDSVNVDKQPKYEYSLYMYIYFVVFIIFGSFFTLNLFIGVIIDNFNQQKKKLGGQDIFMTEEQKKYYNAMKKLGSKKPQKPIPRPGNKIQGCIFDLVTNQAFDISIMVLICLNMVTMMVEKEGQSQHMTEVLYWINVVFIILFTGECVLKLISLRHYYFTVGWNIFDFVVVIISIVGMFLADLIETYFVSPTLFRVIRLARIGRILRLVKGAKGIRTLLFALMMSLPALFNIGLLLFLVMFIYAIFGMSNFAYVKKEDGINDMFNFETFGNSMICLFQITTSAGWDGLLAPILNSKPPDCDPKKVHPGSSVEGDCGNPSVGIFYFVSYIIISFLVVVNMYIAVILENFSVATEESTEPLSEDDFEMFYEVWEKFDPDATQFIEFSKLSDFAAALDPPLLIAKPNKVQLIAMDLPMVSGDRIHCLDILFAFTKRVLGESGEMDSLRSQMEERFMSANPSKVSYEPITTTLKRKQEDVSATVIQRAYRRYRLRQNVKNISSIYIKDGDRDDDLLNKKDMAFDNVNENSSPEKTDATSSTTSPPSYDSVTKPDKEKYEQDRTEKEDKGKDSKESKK
T3 sequence (Q07699 19-218 partner): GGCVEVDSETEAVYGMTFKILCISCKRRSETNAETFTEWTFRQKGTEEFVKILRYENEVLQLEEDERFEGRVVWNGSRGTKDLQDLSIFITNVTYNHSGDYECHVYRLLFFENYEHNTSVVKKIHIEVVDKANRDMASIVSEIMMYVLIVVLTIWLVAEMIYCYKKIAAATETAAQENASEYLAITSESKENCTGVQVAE
T2 sequence (Q15858 1-1977 isoform Q15858-3): as the sequence (Q15858 1-1977 isoform Q15858-3) above
T2 sequence (Q07699 19-218 partner): as the sequence (Q07699 19-218 partner) above
T1 sequence (Q14524 whole entry): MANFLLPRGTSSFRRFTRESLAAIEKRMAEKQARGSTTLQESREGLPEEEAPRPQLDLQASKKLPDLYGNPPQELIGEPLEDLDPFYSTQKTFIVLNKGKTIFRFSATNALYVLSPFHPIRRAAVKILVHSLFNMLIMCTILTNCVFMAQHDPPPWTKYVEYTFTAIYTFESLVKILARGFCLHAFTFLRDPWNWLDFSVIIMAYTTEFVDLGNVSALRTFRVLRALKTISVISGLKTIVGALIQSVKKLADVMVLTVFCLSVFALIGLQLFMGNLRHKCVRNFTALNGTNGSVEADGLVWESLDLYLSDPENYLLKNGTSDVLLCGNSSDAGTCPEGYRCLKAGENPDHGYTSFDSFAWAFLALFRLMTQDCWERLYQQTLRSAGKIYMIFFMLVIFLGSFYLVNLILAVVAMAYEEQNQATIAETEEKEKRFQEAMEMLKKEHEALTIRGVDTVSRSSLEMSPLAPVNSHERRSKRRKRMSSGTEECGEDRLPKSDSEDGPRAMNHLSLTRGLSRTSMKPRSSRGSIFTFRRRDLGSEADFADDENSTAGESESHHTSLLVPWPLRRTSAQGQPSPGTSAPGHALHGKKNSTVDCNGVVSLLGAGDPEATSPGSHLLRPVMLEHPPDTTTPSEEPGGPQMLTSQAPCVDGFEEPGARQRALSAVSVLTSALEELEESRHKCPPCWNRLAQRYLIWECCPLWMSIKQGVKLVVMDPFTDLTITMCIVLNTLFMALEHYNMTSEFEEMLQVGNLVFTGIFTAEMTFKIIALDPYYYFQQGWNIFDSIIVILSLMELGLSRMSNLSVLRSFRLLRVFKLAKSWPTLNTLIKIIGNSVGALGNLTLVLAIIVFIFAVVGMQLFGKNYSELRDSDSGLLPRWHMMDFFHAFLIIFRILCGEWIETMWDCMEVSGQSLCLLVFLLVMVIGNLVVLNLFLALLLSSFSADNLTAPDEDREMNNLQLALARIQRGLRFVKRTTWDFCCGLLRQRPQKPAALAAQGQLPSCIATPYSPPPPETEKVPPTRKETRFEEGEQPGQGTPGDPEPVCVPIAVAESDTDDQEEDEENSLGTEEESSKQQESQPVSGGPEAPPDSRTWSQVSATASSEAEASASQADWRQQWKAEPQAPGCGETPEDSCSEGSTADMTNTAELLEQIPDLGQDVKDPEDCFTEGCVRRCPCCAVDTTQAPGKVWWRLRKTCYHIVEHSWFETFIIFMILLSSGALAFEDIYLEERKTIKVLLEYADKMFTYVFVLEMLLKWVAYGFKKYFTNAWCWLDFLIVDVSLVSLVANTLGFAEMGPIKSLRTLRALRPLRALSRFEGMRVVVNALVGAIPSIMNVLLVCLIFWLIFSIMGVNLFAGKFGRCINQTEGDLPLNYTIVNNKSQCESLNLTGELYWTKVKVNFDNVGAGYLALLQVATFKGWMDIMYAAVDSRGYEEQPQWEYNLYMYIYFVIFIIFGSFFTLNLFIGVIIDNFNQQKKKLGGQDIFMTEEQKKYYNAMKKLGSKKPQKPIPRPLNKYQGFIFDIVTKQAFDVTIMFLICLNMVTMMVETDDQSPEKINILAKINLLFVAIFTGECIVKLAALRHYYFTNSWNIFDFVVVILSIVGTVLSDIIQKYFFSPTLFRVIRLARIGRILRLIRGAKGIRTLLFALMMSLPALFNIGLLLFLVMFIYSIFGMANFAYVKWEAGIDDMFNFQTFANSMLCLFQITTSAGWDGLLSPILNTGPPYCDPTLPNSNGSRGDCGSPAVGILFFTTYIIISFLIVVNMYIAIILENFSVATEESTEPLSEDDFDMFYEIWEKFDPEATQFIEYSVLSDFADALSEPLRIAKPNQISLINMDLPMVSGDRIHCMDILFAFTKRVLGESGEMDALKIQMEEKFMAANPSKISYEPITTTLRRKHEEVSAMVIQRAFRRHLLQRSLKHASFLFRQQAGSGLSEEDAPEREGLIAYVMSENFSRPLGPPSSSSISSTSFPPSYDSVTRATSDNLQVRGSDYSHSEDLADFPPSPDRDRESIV

In the case of `C[C@@H](c1cc(Cl)cc(Cl)c1)N1CCC(COc2cc(F)c(C(=O)N3C[C@H](Cl)C[C@H]3C(=O)O)cc2C2CC2)CC1` [Example 169, (2S,4R)-4-chloro-1-(5-cyclopropyl-4-((1-((S)-1-(3,5-dichlorophenyl)ethyl)piperidin-4-yl)methoxy)-2-fluorobenzoyl)pyrrolidine-2-carboxylic acid], the IC50 in data set [1] (read-out: Nav1.5) worked out at 13 µM; in data set [2], 0.78 µM; in data set [3], 0.091 µM.
Take `O=C(N[C@H](C(=O)O)C1CCC1)c1cc(C2CC2)c(OCC23CC4CC(CC(C4)C2)C3)cc1F` [Example 170, (2S)-2-[[4-(1-adamantylmethoxy)-5-cyclopropyl-2-fluorobenzoyl]amino]-2-cyclobutyl-acetic acid]: the IC50 came to 3.7 µM in data set [1] (read-out: Nav1.5), 3.8 µM in data set [2] and 0.26 µM in data set [3].
For `CC(c1cc(Cl)cc(Cl)c1)N1CCC(COc2cc(F)c(C(=O)N3[C@@H](C(=O)O)C[C@H]4CCC[C@H]43)cc2C2CC2)CC1` (stereo partly drawn) [Example 172, (2R,3R,6R)-1-(5-cyclopropyl-4-((1-((R)-1-(3,5-dichlorophenyl)ethyl)piperidin-4-yl)methoxy)-2-fluorobenzoyl)octahydrocyclopenta[b]pyrrole-2-carboxylic acid] the same measures were 14 µM, 4.2 µM and 1 µM.
For `O=C(O)[C@@H]1C[C@@H](F)CN1C(=O)c1cc(C2CC2)c(OCC2CCN(Cc3cc(Cl)cc(C(F)(F)F)c3)CC2)cc1F` [Example 173, (2S,4R)-1-(4-((1-(3-chloro-5-(trifluoromethyl)benzyl)piperidin-4-yl)methoxy)-5-cyclopropyl-2-fluorobenzoyl)-4-fluoropyrrolidine-2-carboxylic acid] the same measures were 23 µM, 0.33 µM and 0.065 µM.
As for `CC(c1ccc(Cl)cc1Cl)N1CCC(COc2cc(F)c(C(=O)N3C[C@H](F)C[C@H]3C(=O)O)cc2C2CC2)CC1` (stereo partly drawn) [Example 174], the IC50 in data set [1] (setting [4]) was no less than 30 µM; in data set [2], 0.34 µM; in data set [3] it was 0.026 µM.
For `O=C(O)[C@@H]1C[C@@H](F)CN1C(=O)c1cc(C2CC2)c(OCC2CCN(Cc3ccc(Cl)c(Cl)c3)CC2)cc1F` [Example 175, (2S,4R)-1-(5-cyclopropyl-4-((1-(3,4-dichlorobenzyl)piperidin-4-yl)methoxy)-2-fluorobenzoyl)-4-fluoropyrrolidine-2-carboxylic acid], in that order: no less than 30 µM, 1.2 µM and 0.11 µM.
Consider `O=C(c1cc(C2CC2)c(OCC23CC4CC(CC(C4)C2)C3)cc1F)N1CC2CC1(C(=O)O)C2` [Example 176, 3-[4-(1-adamantylmethoxy)-5-cyclopropyl-2-fluoro-benzoyl]-3-azabicyclo[2.1.1]hexane-4-carboxylic acid], for which the IC50 in data set [1] (read-out: Nav1.5) was 7.2 µM; in data set [2], 1.3 µM; in data set [3], 0.36 µM.
Take `COc1ncccc1-c1cc(C(=O)N2CCC[C@H]2C(=O)O)c(F)cc1Oc1cnc(OC(C)C)c(Cl)c1` [Example 179, (S)-1-(4-((5-chloro-6-isopropoxypyridin-3-yl)oxy)-2-fluoro-5-(2-methoxypyridin-3-yl)benzoyl)pyrrolidine-2-carboxylic acid]: the values for the IC50 in data set [1] (setting [4]), in data set [2] and in data set [3] were no less than 30 µM, 0.83 µM and 0.4 µM, respectively.
For `O=C(O)[C@@H]1CCCN1C(=O)c1cc(Cl)c(COc2cnc(OCC(F)(F)C(F)F)c(Cl)c2)cc1F` [Example 180, (S)-1-(5-chloro-4-(((5-chloro-6-(2,2,3,3-tetrafluoropropoxy)pyridin-3-yl)oxy)methyl)-2-fluorobenzoyl)pyrrolidine-2-carboxylic acid] the same measures were no less than 30 µM, 1.4 µM and 0.83 µM.
